In patent US11725011B2, “Bicyclic urea kinase inhibitors and uses thereof” (The Broad Institute, Inc., priority 2016, dated 2023):

Key:
Details in all cases: 1 uM
[1] = target: SLK (Homo sapiens (Human), UniProt Q9H2G2); assay: KINOMEscan; format: binding
[2] = target: WNK3 (Homo sapiens (Human), UniProt Q9BYP7); assay: KINOMEscan; format: binding
[3] = target: LATS1 (Homo sapiens (Human), UniProt O95835); assay: KINOMEscan; format: binding
[4] = target: LYN (Homo sapiens (Human), UniProt P07948); assay: KINOMEscan; format: binding
[5] = target: NEK9 (Homo sapiens (Human), UniProt Q8TD19); assay: KINOMEscan; format: binding
[6] = target: ERBB2 (Homo sapiens (Human), UniProt P04626); assay: KINOMEscan; format: binding
[7] = target: MST2 (Homo sapiens (Human), UniProt Q13188); assay: KINOMEscan; format: binding
[8] = target: AAK1 (Homo sapiens (Human), UniProt Q2M2I8); assay: KINOMEscan; format: binding
[9] = target: DYRK1B (Homo sapiens (Human), UniProt Q9Y463); assay: KINOMEscan; format: binding
[10] = target: MEK1 (Homo sapiens (Human), UniProt Q02750); assay: KINOMEscan; format: binding
[11] = target: ZAP70 (Homo sapiens (Human), UniProt P43403); assay: KINOMEscan; format: binding
Chain of ZAP70 (P43403 whole entry): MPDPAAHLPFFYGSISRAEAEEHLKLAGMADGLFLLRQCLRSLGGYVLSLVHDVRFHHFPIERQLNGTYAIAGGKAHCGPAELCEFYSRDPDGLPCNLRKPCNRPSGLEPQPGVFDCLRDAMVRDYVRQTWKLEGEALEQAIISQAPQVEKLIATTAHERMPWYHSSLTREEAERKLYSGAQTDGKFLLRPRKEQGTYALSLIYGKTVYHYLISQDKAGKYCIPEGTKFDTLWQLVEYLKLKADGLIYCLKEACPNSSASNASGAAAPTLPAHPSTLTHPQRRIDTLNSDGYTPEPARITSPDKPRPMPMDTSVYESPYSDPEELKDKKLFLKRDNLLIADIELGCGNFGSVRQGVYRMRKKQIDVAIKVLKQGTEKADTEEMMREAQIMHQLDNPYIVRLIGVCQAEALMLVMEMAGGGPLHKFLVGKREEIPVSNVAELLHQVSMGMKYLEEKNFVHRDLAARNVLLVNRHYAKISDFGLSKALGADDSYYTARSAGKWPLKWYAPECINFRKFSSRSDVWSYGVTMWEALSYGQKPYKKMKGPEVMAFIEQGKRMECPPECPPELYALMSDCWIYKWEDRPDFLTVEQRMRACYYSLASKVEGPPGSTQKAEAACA

[12] = target: SRMS (Homo sapiens (Human), UniProt Q9H3Y6); assay: KINOMEscan; format: binding
[13] = target: MAST1 (Homo sapiens (Human), UniProt Q9Y2H9); assay: KINOMEscan; format: binding
[14] = target: PAK2 (Homo sapiens (Human), UniProt Q13177); assay: KINOMEscan; format: binding
Chain of PAK2 (Q13177 whole entry): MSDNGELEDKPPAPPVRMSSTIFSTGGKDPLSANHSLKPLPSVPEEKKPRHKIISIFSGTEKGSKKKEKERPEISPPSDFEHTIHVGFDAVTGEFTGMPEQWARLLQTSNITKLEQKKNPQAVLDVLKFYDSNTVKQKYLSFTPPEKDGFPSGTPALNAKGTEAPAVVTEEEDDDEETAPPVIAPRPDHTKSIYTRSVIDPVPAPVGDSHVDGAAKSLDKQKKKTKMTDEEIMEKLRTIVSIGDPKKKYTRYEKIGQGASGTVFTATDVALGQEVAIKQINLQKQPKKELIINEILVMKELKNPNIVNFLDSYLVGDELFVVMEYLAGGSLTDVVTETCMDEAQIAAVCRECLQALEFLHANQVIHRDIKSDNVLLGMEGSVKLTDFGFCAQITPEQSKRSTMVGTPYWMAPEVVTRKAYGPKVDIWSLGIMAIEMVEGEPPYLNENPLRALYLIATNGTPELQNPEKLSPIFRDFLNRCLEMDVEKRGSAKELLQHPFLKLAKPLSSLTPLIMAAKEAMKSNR

[15] = target: EPHA3 (Homo sapiens (Human), UniProt P29320); assay: KINOMEscan; format: binding
[16] = target: RSK1 (Kin.Dom.1-N-terminal) (Homo sapiens (Human), UniProt Q15418); assay: KINOMEscan; format: binding
[17] = target: DYRK2 (Homo sapiens (Human), UniProt Q92630); assay: KINOMEscan; format: binding
[18] = target: RSK4 (Kin.Dom.1-N-terminal) (Homo sapiens (Human), UniProt Q9UK32); assay: KINOMEscan; format: binding
Chain of RSK4 (Kin.Dom.1-N-terminal) (Q9UK32 73-330): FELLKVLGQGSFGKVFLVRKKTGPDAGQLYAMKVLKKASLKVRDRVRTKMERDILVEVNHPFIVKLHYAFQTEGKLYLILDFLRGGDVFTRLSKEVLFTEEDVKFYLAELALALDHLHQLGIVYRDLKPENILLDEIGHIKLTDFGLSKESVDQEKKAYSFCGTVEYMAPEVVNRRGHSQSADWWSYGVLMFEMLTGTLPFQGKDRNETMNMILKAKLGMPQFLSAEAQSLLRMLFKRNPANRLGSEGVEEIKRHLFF

[19] = target: FLT3 (K663Q) (Homo sapiens (Human), UniProt P36888, K663Q); assay: KINOMEscan; format: binding
[20] = target: PAK4 (Homo sapiens (Human), UniProt O96013); assay: KINOMEscan; format: binding
[21] = target: PFCDPK1 (P. falciparum) (Plasmodium falciparum (isolate 3D7), UniProt P62344); assay: KINOMEscan; format: binding
[22] = target: CSK (Homo sapiens (Human), UniProt P41240); assay: KINOMEscan; format: binding
[23] = target: SNRK (Homo sapiens (Human), UniProt Q9NRH2); assay: KINOMEscan; format: binding
[24] = target: PDGFRB (Homo sapiens (Human), UniProt P09619); assay: KINOMEscan; format: binding
[25] = target: PCTK3 (Homo sapiens (Human), UniProt Q07002); assay: KINOMEscan; format: binding
[26] = target: CAMK1D (Homo sapiens (Human), UniProt Q8IU85); assay: KINOMEscan; format: binding
Chain of CAMK1D (Q8IU85 whole entry): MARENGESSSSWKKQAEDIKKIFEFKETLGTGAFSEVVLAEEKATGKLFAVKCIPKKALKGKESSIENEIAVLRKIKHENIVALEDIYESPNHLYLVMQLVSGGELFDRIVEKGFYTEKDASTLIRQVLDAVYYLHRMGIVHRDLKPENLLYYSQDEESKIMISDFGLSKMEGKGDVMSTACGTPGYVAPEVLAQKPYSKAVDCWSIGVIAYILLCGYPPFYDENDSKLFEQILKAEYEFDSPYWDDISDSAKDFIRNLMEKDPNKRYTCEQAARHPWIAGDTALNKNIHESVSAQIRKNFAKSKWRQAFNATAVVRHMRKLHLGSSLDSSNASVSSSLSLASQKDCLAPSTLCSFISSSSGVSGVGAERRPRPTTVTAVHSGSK

[27] = target: DCAMKL2 (Homo sapiens (Human), UniProt Q8N568); assay: KINOMEscan; format: binding
[28] = target: QSK (Homo sapiens (Human), UniProt Q9Y2K2); assay: KINOMEscan; format: binding
[29] = target: YSK1 (Homo sapiens (Human), UniProt O00506); assay: KINOMEscan; format: binding
[30] = target: AKT3 (Homo sapiens (Human), UniProt Q9Y243); assay: KINOMEscan; format: binding
Chain of AKT3 (Q9Y243 whole entry): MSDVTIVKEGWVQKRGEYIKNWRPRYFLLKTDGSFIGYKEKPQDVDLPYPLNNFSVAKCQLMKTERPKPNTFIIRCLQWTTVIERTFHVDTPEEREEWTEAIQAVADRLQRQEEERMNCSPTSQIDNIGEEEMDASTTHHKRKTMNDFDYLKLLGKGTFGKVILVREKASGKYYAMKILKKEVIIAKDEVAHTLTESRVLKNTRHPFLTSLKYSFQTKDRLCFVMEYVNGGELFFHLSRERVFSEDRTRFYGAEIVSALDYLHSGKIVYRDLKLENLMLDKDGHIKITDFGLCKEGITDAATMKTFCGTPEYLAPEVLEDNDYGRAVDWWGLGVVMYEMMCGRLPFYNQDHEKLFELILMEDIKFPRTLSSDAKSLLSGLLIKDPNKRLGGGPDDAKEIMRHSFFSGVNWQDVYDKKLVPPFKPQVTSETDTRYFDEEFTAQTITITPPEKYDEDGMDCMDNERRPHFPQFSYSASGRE

[31] = target: MET (Y1235D) (Homo sapiens (Human), UniProt P08581, Y1235D); assay: KINOMEscan; format: binding
[32] = target: LRRK2 (G2019S) (Homo sapiens (Human), UniProt Q5S007, G2019S); assay: KINOMEscan; format: binding
[33] = target: IGF1R (Homo sapiens (Human), UniProt P08069); assay: KINOMEscan; format: binding
[34] = target: CSNK1A1 (Homo sapiens (Human), UniProt P48729); assay: KINOMEscan; format: binding
[35] = target: PKNB (M. tuberculosis) (Mycobacterium tuberculosis (strain ATCC 25618 / H37Rv), UniProt P9WI81)
[36] = target: CDK2 (Homo sapiens (Human), UniProt P24941); assay: KINOMEscan; format: binding
[37] = target: AKT2 (Homo sapiens (Human), UniProt P31751); assay: KINOMEscan; format: binding
[38] = target: MARK2 (Homo sapiens (Human), UniProt Q7KZI7); assay: KINOMEscan; format: binding
Chain of MARK2 (Q7KZI7 whole entry): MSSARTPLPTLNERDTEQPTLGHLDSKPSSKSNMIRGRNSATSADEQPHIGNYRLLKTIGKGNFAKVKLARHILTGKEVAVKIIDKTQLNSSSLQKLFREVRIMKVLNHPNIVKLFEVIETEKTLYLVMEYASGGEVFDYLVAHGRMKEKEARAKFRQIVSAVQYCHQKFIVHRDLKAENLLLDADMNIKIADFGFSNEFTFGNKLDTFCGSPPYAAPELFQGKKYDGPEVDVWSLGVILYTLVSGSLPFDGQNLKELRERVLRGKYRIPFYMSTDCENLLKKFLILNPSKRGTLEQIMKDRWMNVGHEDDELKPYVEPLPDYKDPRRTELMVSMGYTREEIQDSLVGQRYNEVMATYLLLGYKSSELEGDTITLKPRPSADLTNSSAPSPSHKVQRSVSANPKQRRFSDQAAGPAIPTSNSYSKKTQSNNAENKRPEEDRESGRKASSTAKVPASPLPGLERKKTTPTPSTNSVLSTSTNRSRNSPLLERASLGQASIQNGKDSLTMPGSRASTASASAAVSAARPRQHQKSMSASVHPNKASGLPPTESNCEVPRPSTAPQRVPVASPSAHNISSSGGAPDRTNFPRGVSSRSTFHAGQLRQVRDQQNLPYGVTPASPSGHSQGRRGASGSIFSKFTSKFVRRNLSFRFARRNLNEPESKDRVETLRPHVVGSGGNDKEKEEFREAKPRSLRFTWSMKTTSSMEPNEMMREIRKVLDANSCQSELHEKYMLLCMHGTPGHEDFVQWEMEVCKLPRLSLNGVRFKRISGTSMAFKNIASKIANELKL

[39] = target: NIK (Homo sapiens (Human), UniProt Q99558); assay: KINOMEscan; format: binding
[40] = target: PFTAIRE2 (Homo sapiens (Human), UniProt Q96Q40); assay: KINOMEscan; format: binding

Chain of WNK3 (Q9BYP7 whole entry): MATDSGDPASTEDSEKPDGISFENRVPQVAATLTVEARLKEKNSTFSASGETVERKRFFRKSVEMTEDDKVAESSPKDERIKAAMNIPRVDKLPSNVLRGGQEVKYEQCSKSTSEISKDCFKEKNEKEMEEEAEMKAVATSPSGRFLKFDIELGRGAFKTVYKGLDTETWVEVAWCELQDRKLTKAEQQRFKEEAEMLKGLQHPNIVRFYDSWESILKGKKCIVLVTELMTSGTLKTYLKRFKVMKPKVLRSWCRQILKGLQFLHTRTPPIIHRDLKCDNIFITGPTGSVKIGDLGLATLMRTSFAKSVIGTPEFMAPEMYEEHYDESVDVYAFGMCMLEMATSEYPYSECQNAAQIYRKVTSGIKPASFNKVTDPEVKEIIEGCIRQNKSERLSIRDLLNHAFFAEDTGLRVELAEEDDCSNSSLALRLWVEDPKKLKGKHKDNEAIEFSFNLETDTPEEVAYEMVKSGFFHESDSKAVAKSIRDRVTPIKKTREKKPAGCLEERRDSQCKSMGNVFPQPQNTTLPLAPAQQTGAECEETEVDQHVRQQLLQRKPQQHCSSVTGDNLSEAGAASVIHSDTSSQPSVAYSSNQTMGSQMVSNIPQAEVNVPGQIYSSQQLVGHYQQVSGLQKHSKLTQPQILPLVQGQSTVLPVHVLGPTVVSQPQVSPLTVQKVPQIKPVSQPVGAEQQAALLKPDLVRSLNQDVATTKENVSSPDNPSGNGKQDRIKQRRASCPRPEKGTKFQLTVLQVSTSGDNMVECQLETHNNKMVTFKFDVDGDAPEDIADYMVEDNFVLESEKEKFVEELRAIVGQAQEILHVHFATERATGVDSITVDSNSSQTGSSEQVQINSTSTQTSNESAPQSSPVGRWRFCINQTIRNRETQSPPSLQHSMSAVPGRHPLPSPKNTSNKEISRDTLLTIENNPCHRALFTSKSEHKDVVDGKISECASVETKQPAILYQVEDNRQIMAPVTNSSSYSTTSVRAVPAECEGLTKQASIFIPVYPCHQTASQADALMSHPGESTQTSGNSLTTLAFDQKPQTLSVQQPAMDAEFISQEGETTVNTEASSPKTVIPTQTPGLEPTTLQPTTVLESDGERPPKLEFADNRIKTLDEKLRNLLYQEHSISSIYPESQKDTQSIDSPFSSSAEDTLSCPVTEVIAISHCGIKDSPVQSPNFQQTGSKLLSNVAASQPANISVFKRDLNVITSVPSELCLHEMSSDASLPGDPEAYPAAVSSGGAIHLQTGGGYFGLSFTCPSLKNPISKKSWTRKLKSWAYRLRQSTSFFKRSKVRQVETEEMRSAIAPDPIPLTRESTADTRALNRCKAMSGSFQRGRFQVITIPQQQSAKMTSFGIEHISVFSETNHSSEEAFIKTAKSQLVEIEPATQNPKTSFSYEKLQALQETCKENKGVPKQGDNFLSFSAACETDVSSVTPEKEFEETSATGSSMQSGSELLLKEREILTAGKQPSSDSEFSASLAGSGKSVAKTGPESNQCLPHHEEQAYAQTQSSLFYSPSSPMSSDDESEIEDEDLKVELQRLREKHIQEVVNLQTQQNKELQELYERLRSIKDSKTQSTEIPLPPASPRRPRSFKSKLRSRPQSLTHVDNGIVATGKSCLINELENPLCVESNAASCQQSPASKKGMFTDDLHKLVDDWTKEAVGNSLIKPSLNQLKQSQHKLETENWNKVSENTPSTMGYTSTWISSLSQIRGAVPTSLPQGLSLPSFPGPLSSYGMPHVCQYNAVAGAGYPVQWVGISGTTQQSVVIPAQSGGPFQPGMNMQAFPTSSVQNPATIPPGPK

Structure (SMILES): COc1ccc(N2C(=O)N(c3c(C)cccc3C)Cc3cnc(Nc4ccc(N5CCN(C)CC5)cc4)nc32)c(OC)c1 [HG-11-136-01]
- KINOMEscan SLK [1]: 0.1
- KINOMEscan WNK3 [2]: 50
- KINOMEscan LATS1 [3]: 100
- KINOMEscan LYN [4]: 0
- KINOMEscan NEK9 [5]: 81
- KINOMEscan ERBB2 [6]: 0
- KINOMEscan MST2 [7]: 0.75
- KINOMEscan AAK1 [8]: 13
- KINOMEscan DYRK1B [9]: 60
- KINOMEscan MEK1 [10]: 0.55
- KINOMEscan ZAP70 [11]: 25
- KINOMEscan SRMS [12]: 0
- KINOMEscan MAST1 [13]: 62
- KINOMEscan PAK2 [14]: 61
- KINOMEscan EPHA3 [15]: 0.8
- KINOMEscan RSK1 (Kin.Dom.1-N-terminal) [16]: 48
- KINOMEscan DYRK2 [17]: 5
- KINOMEscan RSK4 (Kin.Dom.1-N-terminal) [18]: 39
- KINOMEscan FLT3 (K663Q) [19]: 31
- KINOMEscan PAK4 [20]: 34
- KINOMEscan PFCDPK1 (P. falciparum) [21]: 0.1
- KINOMEscan CSK [22]: 0.3
- KINOMEscan SNRK [23]: 91
- KINOMEscan PDGFRB [24]: 0
- KINOMEscan PCTK3 [25]: 100
- KINOMEscan CAMK1D [26]: 68
- KINOMEscan DCAMKL2 [27]: 88
- KINOMEscan QSK [28]: 0.25
- KINOMEscan YSK1 [29]: 19
- KINOMEscan AKT3 [30]: 100
- KINOMEscan MET (Y1235D) [31]: 61
- KINOMEscan LRRK2 (G2019S) [32]: 6.6
- KINOMEscan IGF1R [33]: 100
- KINOMEscan CSNK1A1 [34]: 100
- KINOMEscan PKNB (M. tuberculosis) [35]: 6.6
- KINOMEscan CDK2 [36]: 97
- KINOMEscan AKT2 [37]: 100
- KINOMEscan MARK2 [38]: 3.7
- KINOMEscan NIK [39]: 36
- KINOMEscan PFTAIRE2 [40]: 78
